Patent US11510945B2, “Compositions and methods for enhancing ion transporter activity and uses thereof” (THE ROYAL INSTITUTION FOR THE ADVANCEMENT OF …, priority 2018, dated 2022)

Tests used:
[1] = tested on: GFP-wt-CFTR; experiment: Image Correlation Spectroscopy of GFP-wt-CFTR aggregation at the plasma membrane; format: cell-based, human; conditions: for CFTR clustering / platforms (degree of aggregation) at the plasma membrane: primary human bronchial epithelial cells, fenretinide 1.25 μM 24 h pretreatment, Thaps 2 μM 10-20 min
Description: FIGS. 3A-E are confocal images of GFP-wt-CFTR expressed at the plasma membrane of pHBE cells under control conditions (Ctr) (FIG. 3A); after 10-20 min treatment with 2 μM Thapsigargin (FIG. 3B); after treatment with 1.25 μM Fenretinide (FIG. 3C); after treatment with 1.25 μM Fenretinide and Thapsigargin (same conditions as above) (FIG. 3D); or after treatment with 1.25 μM Fenretinide+Thapsigargin (same conditions as above)+Amitriptyline (13 μM for 40 min) (FIG. 3E).
FIG. 3F is a graph showing the quantification of CFTR aggregation and accumulation at the cell surface under control conditions (Ctr), after treatment with Thapsigargin (Thaps), after treatment with Fenretinide (Fen), and after treatment with Fenretinide and Thapsigargin (Fen+Thaps).
It was next tested whether fenretinide and/or zinc could have an effect on the ability of native CFTR-expressing epithelial cells to transport chloride. CFTR is known to become localized in relatively stable platforms during viral infection (Abu-Arish et al., 2015). The formation of such platforms expressing CFTR was measured following treatment with fenretinide. The Image Correlation Spectroscopy technique was used to measure the degree of aggregation of GFP-wt-CFTR at the plasma membrane of primary human bronchial epithelial cells. The degree of aggregation is proportional to the mean number of CFTR channels per cluster or platform. Confocal images of CFTR at the plasma membrane were collected for analysis under control (Ctr), thapsigargin (Thaps), fenretinide (Fen) or a combination of Fen+Thaps. Cells were pretreated or not with fenretinide at 1.25 μM for 24 h before imaging whereas Thaps (2 μM) exposures were acute (10-20 min).

[2] = tested on: airway epithelial cells overexpressing the delF508 mutated form of CFTR (delF508/delF508); experiment: DHA and AA fatty acid levels in airway epithelial cells overexpressing delF508 CFTR; format: cell-based, human; conditions: 72h, relative to untreated cells; for DHA levels: 1.25 μM fenretinide and/or 12.5 μM zinc sulfate
Description: FIGS. 2A-C are graphs showing the effect of fenretinide, Zn^2+ treatment on the level of DHA (FIG. 2A), AA (FIG. 2B) and their ratio (FIG. 2C) in lung epithelial cells overexpressing a mutant form of CFTR (CFTR-delF508) or native CFTR (wt CFTR). Lung epithelial cells grown as 80% confluent monolayer of were treated for 72h with 1.25 μM fenretinide and/or 12.5 μM zinc sulfate. The levels of AA and DHA were assessed as previously described in Guilbault et al. 2008, 2009. All statistical analyses were performed using GraphPad™ software (GraphPad, San Diego, Calif., USA). Statistical significance of differences was evaluated using unpaired t-test with Welch's correction. Data are represented as means±SD (*p≤0.05, **p≤0.01, ***p≤0.001, ****p≤0.0001). All experiments were done in triplicates (n=3).
It was next assessed whether fenretinide and zinc modulate the levels of omega-3 (docosahexaenoic acid, DHA) and omega-6 (arachidonic acid, AA) fatty acids in airway epithelial cells overexpressing the delF508 mutated form of CFTR (delF508/delF508) or native CFTR (wt CFTR). […] For AA levels, all treatments led to a significant decrease in AA levels in delF508 CFTR-expressing cells (relative to untreated cells), but not in native CFTR-expressing cells.

[3] = tested on: cytoplasmic phospholipases (cPLA2); experiment: cPLA2 activity in lung epithelial cells (commercial kit); format: cell-based, human
Description: FIG. 1 is a graph showing the effect of fenretinide and Zn^2+ treatment on the activity of cytoplasmic phospholipases (cPLA2). Lung epithelial cells were treated with 1.25 μM fenretinide (Fen) and/or 12.5 μM zinc sulfate (Zn^2+) for 12, 24, 48 or 72 hours and the activity of PLA2 was assessed using a commercially available ELISA kit (Abcam, cat. No. ab133090). All statistical analyses were performed using GraphPad™ software (GraphPad, San Diego, Calif., USA). Statistical significance of differences was evaluated using unpaired t-test with Welch's correction. Data are represented as means±SD (*p 0.05, **p 0.01, ***p 0.001, ****p 0.0001). All experiments were done in triplicates (n=3).
The effect of fenretinide (Fen) and/or zinc (Zn^2+) ions on the lipid metabolism in human airway epithelial cells was assessed the modulation of cytoplasmic phospholipases (cPLA2) activity. cPLA2 activity, as evaluated by colorimetric assay, was decreased following fenretinide treatment in a time dependent fashion, starting 24h after treatment (FIG. 1).

[4] = target: T1, F508del-CFTR (Homo sapiens, UniProt P13569, DEL508-508); experiment: Ussing chamber F508del-CFTR conductance across basally permeabilized polarized cells; format: cell-based; conditions: 1.25 μM Fen alone for 3 days, 1 μM VX-809 last 24h
T1 construct: host or cells: polarized bronchial epithelial cells
Description: FIG. 5 is a graph showing the effect of Zinc and/or Fenretinide treatment on F508del-CFTR function after partial rescue by VX-809 (809) in the absence and presence of 50 μM of the potentiator genistein (acts similarly to VX770). Ussing Chambers were used to measure F508del-CFTR conductance by measuring the short-circuit current across basally permeabilized polarized cells in response to forskolin (FSK) or forskolin+genistein (FSK+Gen). Treatment: Cells were treated basally or not with 1.25 μM fenretinide (Fen) or the combination a combination of 1.25 μM Fenretinide and 12.5 μM Zinc (FenZn) for 3 days. 1 μM VX-809 was added bilaterally during the last 24h. Unpaired student t-test was used for statistical analysis.
FIG. 6 is a graph showing the effect of Zinc and/or Fenretinide treatment on F508del-CFTR mediated secretion in the absence of VX-809. Ussing Chambers were used to measure F508del-CFTR functional expression as short-circuit current across polarized and basally permeabilized bronchial epithelial cells in response to forskolin (FSK) or forskolin+genistein (FSK+Gen). Cells were treated basally or not with 1.25 μM Fenretinide (Fen) and/or 12.5 μM Zinc (Zn) for 3 days. […]

T1 sequence (P13569 with tags, fused parts or gaps DEL508-508): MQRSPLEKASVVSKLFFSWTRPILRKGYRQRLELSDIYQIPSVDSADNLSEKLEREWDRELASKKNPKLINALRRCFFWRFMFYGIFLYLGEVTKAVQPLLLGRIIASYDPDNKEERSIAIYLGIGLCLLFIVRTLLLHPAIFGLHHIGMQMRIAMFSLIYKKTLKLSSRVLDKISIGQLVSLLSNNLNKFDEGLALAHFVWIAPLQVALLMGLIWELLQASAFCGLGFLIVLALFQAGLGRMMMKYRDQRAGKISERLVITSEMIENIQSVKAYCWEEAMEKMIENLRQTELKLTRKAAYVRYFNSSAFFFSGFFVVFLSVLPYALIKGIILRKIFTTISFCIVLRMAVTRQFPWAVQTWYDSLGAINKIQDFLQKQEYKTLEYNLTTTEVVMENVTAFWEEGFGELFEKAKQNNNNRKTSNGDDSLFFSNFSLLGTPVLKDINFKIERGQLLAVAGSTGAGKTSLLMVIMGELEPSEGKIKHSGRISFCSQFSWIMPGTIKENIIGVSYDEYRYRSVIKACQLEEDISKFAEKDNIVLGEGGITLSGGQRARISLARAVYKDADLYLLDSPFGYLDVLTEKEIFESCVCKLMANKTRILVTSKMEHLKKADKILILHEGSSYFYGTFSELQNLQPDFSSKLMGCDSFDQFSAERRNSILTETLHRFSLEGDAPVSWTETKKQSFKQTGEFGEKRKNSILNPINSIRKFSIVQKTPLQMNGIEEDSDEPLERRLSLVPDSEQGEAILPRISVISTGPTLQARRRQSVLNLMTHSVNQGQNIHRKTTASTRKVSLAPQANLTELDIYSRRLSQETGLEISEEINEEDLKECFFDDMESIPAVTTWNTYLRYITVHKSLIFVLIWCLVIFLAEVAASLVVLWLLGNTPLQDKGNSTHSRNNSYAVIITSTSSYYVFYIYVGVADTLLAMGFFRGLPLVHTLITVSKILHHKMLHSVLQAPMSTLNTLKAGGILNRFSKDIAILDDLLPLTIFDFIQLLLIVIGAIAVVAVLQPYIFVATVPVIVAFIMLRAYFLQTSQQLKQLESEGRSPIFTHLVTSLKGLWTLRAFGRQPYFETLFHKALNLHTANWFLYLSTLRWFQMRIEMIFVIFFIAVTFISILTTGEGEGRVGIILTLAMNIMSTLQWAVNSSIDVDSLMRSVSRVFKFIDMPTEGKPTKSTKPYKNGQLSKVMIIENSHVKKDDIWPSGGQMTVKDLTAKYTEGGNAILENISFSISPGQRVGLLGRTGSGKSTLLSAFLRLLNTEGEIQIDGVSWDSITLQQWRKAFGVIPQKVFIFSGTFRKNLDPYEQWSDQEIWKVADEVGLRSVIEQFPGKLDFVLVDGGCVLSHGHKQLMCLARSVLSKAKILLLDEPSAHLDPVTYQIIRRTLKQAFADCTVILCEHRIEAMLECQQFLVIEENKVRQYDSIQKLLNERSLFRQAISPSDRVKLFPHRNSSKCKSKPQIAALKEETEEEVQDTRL

Compound	DHA levels [2]	DHA/AA ratio [2]	CFTR clustering / platforms (degree of aggregation) at the plasma membrane [1]	also measured
CN(C)CCC=C1c2ccccc2CCc2ccccc21 [Amitriptyline]				Induction of CFTR platform formation by fenretinide+thapsigargin ([1]; in the presence of Amitriptyline 13 μM for 40 min): inhibited
CC1=C(/C=C/C(C)=C/C=C/C(C)=C/C(=O)Nc2ccc(O)cc2)C(C)(C)CCC1 [fenretinide, all-trans-N-(4-hydroxyphenyl) retinamide]	significant increase	significant increase	did not affect CFTR clustering	cPLA2 activity ([3]; 1.25 μM fenretinide, 12, 24, 48 or 72 hours): decreased; F508del-CFTR channel function [4]: significant increase
C/C=C(/C)C(=O)O[C@H]1C(C)=C2[C@H]([C@@H]1OC(=O)CCCCCCC)[C@@](C)(OC(C)=O)C[C@H](OC(=O)CCC)[C@@]1(O)[C@H]2OC(=O)[C@@]1(C)O [thapsigargin]			induces some CFTR platforms	
zinc sulfate	significant increase	significant increase		cPLA2 activity ([3]; 12.5 μM zinc sulfate in the absence of fenretinide, 72h): significantly increase; cPLA2 activity, effect of zinc added to fenretinide ([3]; 12.5 μM zinc sulfate with 1.25 μM fenretinide, 24h and 48h): potentiate the effect of fenretinide
